ChEMBL document CHEMBL1201862, “PubChem BioAssay data set” (2004)
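Five compound concentrations were applied to cells in 96-well plates for 48 hours; endpoints were derived by simple linear interpolation of the resulting dose-response curve. At the GI50, growth is halved.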 Active and inactive are the calls of the source. No stated cut-off is given here; in the data, active = GI50 up to about 1.1 µM and inactive = higher.

Columns and labels:
Experiment in all cases: NCI tumour cell line growth inhibition, 48 h
TK-10 = test system: TK-10
NCI-H226 = test system: NCI-H226
BT-549 = test system: BT-549
HL-60 = test system: HL-60
Malme-3M = test system: Malme-3M
SK-MEL-28 = test system: SK-MEL-28
SN12C = test system: SN12C
DU-145 = test system: DU-145
OVCAR-3 = test system: OVCAR-3
HOP-92 = test system: HOP-92
ACHN = test system: ACHN
MDA-N = test system: MDA-N
NCI-H522 = test system: NCI-H522
MCF7 = test system: MCF7
SR = test system: SR
NCI-H23 = test system: NCI-H23
CAKI-1 = test system: CAKI-1
U-251 = test system: U-251
K562 = test system: K562

| Structure (SMILES) | GI50 (TK-10) | GI50 (NCI-H226) | GI50 (BT-549) | GI50 (HL-60) | GI50 (Malme-3M) | GI50 (SK-MEL-28) | GI50 (SN12C) | GI50 (DU-145) | GI50 (OVCAR-3) | GI50 (HOP-92) | GI50 (ACHN) | GI50 (MDA-N) | GI50 (NCI-H522) | GI50 (MCF7) | GI50 (SR) | GI50 (NCI-H23) | GI50 (CAKI-1) | GI50 (U-251) | GI50 (K562) |
| --- | --- | --- | --- | --- | --- | --- | --- | --- | --- | --- | --- | --- | --- | --- | --- | --- | --- | --- | --- |
| CN(C)c1ccc(/C=N/n2c(-c3ccccc3)nc3ccccc3c2=O)cc1 | 81.7 µM (inactive) | 71.6 µM (inactive) | 65.8 µM (inactive) | 40 µM (inactive) | > 100 µM (inactive) | > 100 µM (inactive) | 80.9 µM (inactive) | > 100 µM (inactive) | > 100 µM (inactive) | 90.8 µM (inactive) | 18.5 µM (inactive) | 43.1 µM (inactive) | 49.3 µM (inactive) | > 100 µM (inactive) | 14.1 µM (inactive) | 28.3 µM (inactive) | 29.7 µM (inactive) | 63.4 µM (inactive) |  |
| CC#CC#C/C=C1/O[C@]2(CCC(OC(=O)CC(C)C)CO2)[C@@H]2O[C@H]12 (some centres undefined) | 25.7 µM (inactive) |  | 24.1 µM (inactive) | 19.7 µM (inactive) | 21.8 µM (inactive) |  | 22.2 µM (inactive) | 42.5 µM (inactive) | 21.5 µM (inactive) | 27.4 µM (inactive) | 21 µM (inactive) | 22.5 µM (inactive) | 19.3 µM (inactive) | 33 µM (inactive) | 28.1 µM (inactive) | 24.5 µM (inactive) | 18.2 µM (inactive) | 21.7 µM (inactive) | 31.3 µM (inactive) |
| CC1=C(C(=O)N[C@@H](Cc2ccccc2)C(=O)O)N2C(=O)[C@@H](NC(=O)[C@@H](N)CC(C)C)[C@H]2SC1 | > 100 µM (inactive) | > 100 µM (inactive) | > 100 µM (inactive) | > 100 µM (inactive) | > 100 µM (inactive) | > 100 µM (inactive) | > 100 µM (inactive) | > 100 µM (inactive) | > 100 µM (inactive) | > 100 µM (inactive) | > 100 µM (inactive) | > 100 µM (inactive) | > 100 µM (inactive) | > 100 µM (inactive) | > 100 µM (inactive) |  | > 100 µM (inactive) | > 100 µM (inactive) | > 100 µM (inactive) |
| CCOC(=O)CCC(C(=O)OCC)n1nnc2ccc(Nc3c(C)[n+]([O-])c4cc(F)c(OCC)cc4[n+]3[O-])cc21 (centres undefined) | > 100 µM (inactive) | 48.5 µM (inactive) | 96.2 µM (inactive) | 36.8 µM (inactive) | 35.6 µM (inactive) |  | 45.4 µM (inactive) | 58.9 µM (inactive) | 25.4 µM (inactive) | 24.6 µM (inactive) | 51.8 µM (inactive) | 46.3 µM (inactive) | 61.7 µM (inactive) | 22.5 µM (inactive) | 36.5 µM (inactive) | 73.3 µM (inactive) | 66.1 µM (inactive) | 63.8 µM (inactive) | 41.4 µM (inactive) |
| CCOC(=O)CC1CCN(C(=O)c2ccccc2)C2Cc3c([nH]c4ccccc34)C12C[N+](=O)[O-] (centres undefined) | > 100 µM (inactive) | > 100 µM (inactive) | > 100 µM (inactive) | 38.7 µM (inactive) | > 100 µM (inactive) | > 100 µM (inactive) | > 100 µM (inactive) | > 100 µM (inactive) |  | 40.6 µM (inactive) | 67 µM (inactive) | > 100 µM (inactive) | > 100 µM (inactive) | 41 µM (inactive) | 39.8 µM (inactive) | 73.6 µM (inactive) | 62.2 µM (inactive) | 78.3 µM (inactive) | 36.4 µM (inactive) |
| COC(=O)C1=C(C)N2[C@H](C(=O)O)CO[C@@]2(C)[C@H](C(=O)OC)[C@H]1c1cccc([N+](=O)[O-])c1 | > 100 µM (inactive) | > 100 µM (inactive) | > 100 µM (inactive) |  | > 100 µM (inactive) | > 100 µM (inactive) | > 100 µM (inactive) | > 100 µM (inactive) | > 100 µM (inactive) | > 100 µM (inactive) | > 100 µM (inactive) | > 100 µM (inactive) | > 100 µM (inactive) | > 100 µM (inactive) | > 100 µM (inactive) | > 100 µM (inactive) | > 100 µM (inactive) | > 100 µM (inactive) | > 100 µM (inactive) |
| Cc1ccc([N+](=O)[O-])cc1S(=O)(=O)Nc1ccc(C2=NOC(c3ccco3)C2)cc1 (centres undefined) | 31.2 µM (inactive) | 17 µM (inactive) | 18 µM (inactive) | 21.3 µM (inactive) | 16.6 µM (inactive) | 18.2 µM (inactive) | 21.9 µM (inactive) | 20.2 µM (inactive) | 14.8 µM (inactive) | 29.2 µM (inactive) | 21.3 µM (inactive) | 6.44 µM (inactive) | 10.7 µM (inactive) | 11.6 µM (inactive) | 3.33 µM (inactive) | 16.5 µM (inactive) | 22.8 µM (inactive) |  | 4.7 µM (inactive) |
| CCOC(=O)C1CC(O)C(=O)N1C (centres undefined) | > 100 µM (inactive) | > 100 µM (inactive) | > 100 µM (inactive) | > 100 µM (inactive) |  | > 100 µM (inactive) | > 100 µM (inactive) | > 100 µM (inactive) | > 100 µM (inactive) | > 100 µM (inactive) | > 100 µM (inactive) | > 100 µM (inactive) |  | > 100 µM (inactive) | > 100 µM (inactive) | > 100 µM (inactive) | > 100 µM (inactive) | > 100 µM (inactive) |  |
| O=C(N/C=C1\C(=O)Oc2ccccc2C1=O)Oc1ccccc1 | 22.9 µM (inactive) | 14.4 µM (inactive) | 18.7 µM (inactive) | 29.9 µM (inactive) | 19.1 µM (inactive) |  | 18.6 µM (inactive) | 20 µM (inactive) | 17 µM (inactive) | 22.1 µM (inactive) | 20.9 µM (inactive) | 18.1 µM (inactive) | 25 µM (inactive) | 35.1 µM (inactive) | 18 µM (inactive) | 25.6 µM (inactive) | 21.6 µM (inactive) | 23.9 µM (inactive) | 55.3 µM (inactive) |
| Cc1ccc(C2=Nc3c(N)nc(N)nc3NC(c3ccccc3)C2)cc1 (centres undefined) | 16.9 µM (inactive) | 14.4 µM (inactive) | 7.23 µM (inactive) |  | 9.66 µM (inactive) | 14.4 µM (inactive) | 12.2 µM (inactive) | 14.7 µM (inactive) | 11.5 µM (inactive) | 11.7 µM (inactive) | 15.4 µM (inactive) | 2.12 µM (inactive) | 3.13 µM (inactive) | 8.77 µM (inactive) | 3.56 µM (inactive) | 11.1 µM (inactive) | 14 µM (inactive) | 12.8 µM (inactive) | 3.51 µM (inactive) |
| OCCCCCNc1c2ccccc2nc2ccccc12 | 3.6 µM (inactive) |  | 6.17 µM (inactive) | 3.44 µM (inactive) | 1.9 µM (inactive) | 3.85 µM (inactive) | 2.54 µM (inactive) | 3.02 µM (inactive) | 3.86 µM (inactive) |  | 0.818 µM (active) | 2.54 µM (inactive) | 2.04 µM (inactive) | 2.33 µM (inactive) | 1.37 µM (inactive) | 2.02 µM (inactive) | 2.91 µM (inactive) | 3.73 µM (inactive) | 2.37 µM (inactive) |
| O=c1[nH]c2ccccc2c(=O)n1/N=C\c1ccccc1O | > 100 µM (inactive) | > 100 µM (inactive) | > 100 µM (inactive) | 36.1 µM (inactive) |  | > 100 µM (inactive) | > 100 µM (inactive) | > 100 µM (inactive) | > 100 µM (inactive) | 67 µM (inactive) | > 100 µM (inactive) | > 100 µM (inactive) |  | > 100 µM (inactive) | > 100 µM (inactive) | > 100 µM (inactive) | > 100 µM (inactive) | > 100 µM (inactive) | > 100 µM (inactive) |
| Cc1c(C(=O)NNc2ccccc2)n2c(S)nnc2c2ccccc12 | > 100 µM (inactive) | > 100 µM (inactive) | 97.3 µM (inactive) | > 100 µM (inactive) |  | 86.7 µM (inactive) | > 100 µM (inactive) | > 100 µM (inactive) | > 100 µM (inactive) | > 100 µM (inactive) | > 100 µM (inactive) | > 100 µM (inactive) | > 100 µM (inactive) | > 100 µM (inactive) | 74.3 µM (inactive) | > 100 µM (inactive) | > 100 µM (inactive) | > 100 µM (inactive) | > 100 µM (inactive) |
| CN(C)CCNC(=O)c1cc([N+](=O)[O-])cc2c1Oc1ccccc1O2 | 23.7 µM (inactive) | 12.6 µM (inactive) | 35.5 µM (inactive) | 18.9 µM (inactive) | 21.7 µM (inactive) | 35.2 µM (inactive) | 25.7 µM (inactive) | 37.8 µM (inactive) | 41.8 µM (inactive) |  | 6.46 µM (inactive) | 58.2 µM (inactive) | 21.7 µM (inactive) | 23.1 µM (inactive) | 11.7 µM (inactive) | 51.8 µM (inactive) | 15.6 µM (inactive) | 29.4 µM (inactive) | 23.2 µM (inactive) |
| CC(C)c1cc2c(c(O)c1O)[C@@]1(C(=O)O)CCCC(C)(C)[C@@H]1CC2 [CARNOSIC ACID] | 13.4 µM (inactive) | 10.4 µM (inactive) | 10.5 µM (inactive) |  |  | 13.2 µM (inactive) | 24 µM (inactive) | 25.1 µM (inactive) | 22.7 µM (inactive) | 6.22 µM (inactive) | 13.4 µM (inactive) | 32.4 µM (inactive) | 13 µM (inactive) | 18.9 µM (inactive) | 5.33 µM (inactive) | 20 µM (inactive) | 27.8 µM (inactive) | 13.8 µM (inactive) | 28.4 µM (inactive) |
